Source: patent US20260256741A1, “ANTICANCER MALEIMIDE DERIVATIVES FOR USE WITH IMMUNE CHECKPOINT BLOCKADE” (BROWN UNIVERSITY, priority 2022, published 2026)

Tests used:
HT-29 CRC cells = assay: Western blot analysis of HT-29 CRC cells; assay type: cell-based, human
Protocol: (§1) Recombinant Human TNF-α (Cat #300-01A, PeproTech, Rocky Hill, NJ, USA) and Recombinant Human IFN-γ (Cat #300-02, Peprotech, Rocky Hill, NJ, USA) were purchased for use in western blot analysis while rhTRAIL was generated in-house. Kim et al., J Biol Chem., 279(38):40044-52 (2004).
(§2) Cells were plated in a 6-well plate and incubated overnight before the spent media was replaced with drugged media. Drug treatment lasted for indicated durations. Protein was extracted using radioimmunoprecipitation (RIPA) assay buffer (Cat #R0278, Sigma-Aldrich, St. Louis, MO) containing cOmplete™, Mini, EDTA-free Protease Inhibitor Cocktail (Cat #4693159001, Roche, Basel, Switzerland) from sub-confluent cells. Denaturing sample buffer was added, samples were boiled at 95 degrees for 10 minutes, and an equal amount of protein lysate was electrophoresed through NuPAGE™ 4 to 12%, Bis-Tris, 1.5 mm, Mini Protein Gels (Invitrogen, Waltham, MA) then transferred to PVDF membranes. The PVDF membrane was blocked with 5% non-fat milk (Sigma-Aldrich, St. Louis, MO) in 1×TTBS. Primary antibodies were incubated with the transferred PVDF membrane in blocking buffer at 4° C. overnight. Secondary antibodies used included Goat anti-Rabbit IgG (H+L) Secondary Antibody, HRP (Cat #31460, Invitrogen, Waltham, MA), and Goat anti-Mouse IgG (H+L) Secondary Antibody, HRP (Cat #31430, Invitrogen, Waltham, MA). Signal was detected using Pierce™ ECL Western Blotting Substrate (Cat #32106, Thermo Scientific, Waltham, MA, USA) and a Syngene Imaging System (RRID: SCR_015770).

HCT-116 CRC cells = assay: Western blot analysis of HCT-116 CRC cells; assay type: cell-based, human
Protocol: as §1, §2

[1] = test system: CRC (HCT-116, HT-29) and TALL-104 cells; assay: Pyroptotic events in 40x co-culture images; assay type: cell-based, human
Protocol: 5000 HT-29 GFP+ or HCT 116 GFP+ cells were plated per well in a clear-bottom, black-walled 96-well tissue culture plate and were allowed to adhere overnight. Cells were subsequently treated with DMSO, 5 μM elraglusib, and/or 5000 TALL-104 or NK-92 cells (for an effector-to-tumor ratio of 1:1) for 48 hours. Nine images were taken per well at 10× magnification using a Molecular Devices ImageXpress® Confocal HT.ai High-Content Imaging System and quantified for the number of GFP+ objects using the MetaXpress (RRID: SCR_016654) software (Molecular Devices, San Jose, CA, USA). 40× Images were also taken at 24 hours for representative images of cellular morphology changes. Statistical analysis was done using GraphPad Prism 9 (RRID: SCR_002798).

[2] = Tolerability in the CT-26 BALB/c model (body weight, blood count, serum chemistry); set-up: species or system BALB/c mice; settings: mouse, in vivo
Protocol: The experimental in vivo protocol (Protocol #19-01-003) was approved by the Institutional Animal Care and Use Committee of Brown University (Providence, RI, USA). Six to 7 weeks-old female BALB/c mice (RRID: IMSR_JAX:000651) were purchased from Taconic. 50,000 cells were suspended in 50 μL ice-cold PBS and 50 μL Matrigel (Catalog # 354234, Corning, New York, USA), and 100 uL was injected subcutaneously into the rear flanks. Once tumor volume reached at least 100 mm^3, mice were randomly assigned to one of seven groups (3 mice/group): Control (isotype), elraglusib, elraglusib+Isotype, anti-PD-1, anti-PD-L1, elraglusib+anti-PD-1, and elraglusib+anti-PD-L1. All treatments were delivered by IP injection on the following dosing schedule: Isotype (70 mg/kg, twice a week), elraglusib (70 mg/kg, twice a week), anti-PD-1 (10 mg/kg, twice a week), anti-PD-L1 (10 mg/kg, twice a week). The treatment continued until mice developed signs of discomfort from excessive tumor growth. Mice were weighed once a week to monitor signs of drug toxicity. The length (L) and width (W) of the masses were measured three times per week with a digital caliper, and the tumor volume was calculated by applying the formula: 0.5LW2. Collection of whole blood and serum was performed by cardiac puncture and sent to Antech GLP for blood cell count and chemistry tests, or in-house cytokine profiling. […]

HT-29 cells = assay: Microarray gene expression analysis, HT-29; assay type: cell-based, human
Protocol: (§3) A total of 0.5×10^6 tumor cells (HCT-116, HT-29, KM12C) were plated in a 6-well plate and allowed to adhere overnight before 24-hour treatment as indicated. 1×10^6 immune cells (NK92, TALL-104) were plated and treated with elraglusib as indicated for 24 hours. RNA was isolated from cell pellets in batches of 6 using an RNeasy Plus Mini Kit (Cat #74134, Qiagen, Hilden, Germany). Acceptable RNA concentration and quality were verified with Nanodrop and Bioanalyzer measurements. GeneChip™ Human Transcriptome Array 2.0 assays were conducted according to manufacturer instructions in two batches using randomized samples to limit batch effects (Cat #902162, Applied Biosystems, Waltham, MA, USA). Applied Biosystems Transcriptomic Analysis Console (TAC) software (RRID: SCR_016519) was used to calculate fold changes in gene expression relative to the untreated control cells. Values were considered statistically significant for p values <0.05.

TALL-104 cells [3] = assay: Western blot analysis of TALL-104 immune cells; assay type: cell-based, human
Protocol: as §2

TALL-104 cells [4] = assay: Microarray gene expression analysis, TALL-104; assay type: cell-based, human
Protocol: as §3

[5] = as the 0-72 hour time-course progressed
[6] = as the treatment duration increased (0-72 hours)
[7] = especially at later timepoints (48, 72 hr)
[8] = low dose as in co-culture assays, until the 48-hour timepoint of 72-hour timecourse
[9] = IC-50 concentration (1 μM), 24 hours, FC cutoff >1.5, <−1.5, p<0.05
[10] = as treatment duration increased (0-72 hours)
[11] = immune cell lysates, cell line not given, 0-72 hours

Cn1cc(C2=C(c3coc4ccc(F)cc34)C(=O)NC2=O)c2cc3c(cc21)OCO3 [elraglusib, 3-(5-fluorobenzofuran-3-yl)-4-(5-methyl-5H-[1,3]dioxolo[4,5-f]indol-7-yl)-1H-pyrrole-2,5-dione]
NF-κB p65 expression (HT-29 CRC cells; [5]): decreased expression | PD-L1 expression (HT-29 CRC cells; [6]): increases in PD-L1 expression | Bcl-2 protein expression (HT-29 CRC cells; [7]): decreases in protein expression | Survivin protein expression (HT-29 CRC cells; [7]): decreases in protein expression | cleaved PARP (cPARP) (HT-29 CRC cells; [8]): little to no cleaved PARP | NF-κB p65 expression (HCT-116 CRC cells; [5]): decreased expression | PD-L1 expression (HCT-116 CRC cells; [6]): increases in PD-L1 expression | Mcl-1 protein expression (HCT-116 CRC cells; by the 24-hour timepoint): marked decreases in protein expression | Bcl-2 protein expression (HCT-116 CRC cells; [7]): decreases in protein expression | Survivin protein expression (HCT-116 CRC cells; [7]): decreases in protein expression | cleaved PARP (cPARP) (HCT-116 CRC cells; [8]): little to no cleaved PARP | pyroptotic events ([1]; co-culture of CRC and TALL-104 cells with 5 μM elraglusib): significant increase in pyroptotic events | pyroptotic events ([1]; drug-only condition, no immune cells): did not observe any pyroptotic events | renal function (BUN, creatinine, electrolytes) [2]: maintained normal renal function | NCR3LG1 (B7-H6) gene expression fold change (HT-29 cells; 24 hours vs DMSO): 1.78 FC | downregulated genes in VEGFA-VEGFR2 signaling pathway (HT-29 cells; 24 hours vs DMSO): 37 | differentially expressed genes post-treatment (HT-29 cells; [9]): 2,307 | NF-κB protein (TALL-104 cells [3]; [10]): did not notice significant changes | survival protein Bcl-2 (TALL-104 cells [3]; [10]): did not notice significant changes | NF-κB-inducing kinase (NIK) (TALL-104 cells [3]; [11]): increases | survival protein Survivin (TALL-104 cells [3]; [11]): increases | CCL3 gene expression fold change (TALL-104 cells [4]; 24 hours vs DMSO): 1.52 FC | KIF7 gene expression fold change (TALL-104 cells [4]; 24 hours vs DMSO): 1.56 FC | PTPN3 gene expression fold change (TALL-104 cells [4]; 24 hours vs DMSO): −1.56 FC | differentially expressed genes post-treatment (TALL-104 cells [4]; [9]): 64
